Holding throughout (type): cell-based
Assay [1] deals with β-arrestin recruitment to the GLP-1R. Put plainly: GLP-1 mediated β-arrestin recruitment assay (PathHunter eXpress GLP1R CHO-K1 β-Arrestin cells). The following applies: CHO-K1 cells stably expressing human GLP-1 receptor and β-arrestin. How it is done: PathHunter® eXpress GLP1R CHO-K1 β-Arrestin cells were plated at 6000 cells/well in a 384-well, PDL, white and opaque plate in F12 medium containing 10% FBS, 0.3 mg/ml hygromycin, and 0.8 mg/ml G418. The plate was incubated for two days in a humidified incubator at 37°C and 5% CO2 prior to the experiment. On the day of the exeperiment, the cells were washed once with the Assay Buffer (HBSS with calcium and magnesium, 20 mM Hepes, and 0.1% fatty-acid free BSA) followed by a 10 minute preincubation with GRK inhibitors or vehicle (DMSO) at the indicated concentrations. The final DMSO concentration was 0.1%. GLP-1 was added to the indicated concentrations, and incubation was continued for an additional 90 minutes at 37°C. The detection reagent was then added the cells, followed by a 60 minute incubation at the room temperature. The plate was read on MicroBeta LumiJet (PerkinElmer, Waltham, MA). In this cellular system, the GLP-1 receptor is fused in frame with the small enzyme fragment of ProLinkTM and co-expressed in cells expressing a fusion of the larger deletion mutant of β-gal, also called enzyme acceptor. […] The cellular β-gal enzyme activity is measured using chemiluminescent detection reagents.

In a further assay the test system is INS-1 832/13 cells. The assay can be described thus: GLP-1 mediated insulin secretion in INS-1 832/13 cells. The following applies: GLP-1 at 10 nM, 5 mM glucose. How it is done:
INS-1 832/13 cells were cultured in medium composed of RPMI 1640 medium supplemented with 10% fetal bovine serum, 50 IU/mL penicillin, 50 mg/L streptomycin, 10 mM HEPES, 2 mM L-glutamine, 1 mM sodium pyruvate, and 50 µM beta-mercaptoethanol. Cells were split twice a week, grown in a 37°C incubator under a humidified atmosphere containing 5% CO2 and plated at (60,000 cells/well) in a 96-well plate, two days prior to the experiment. Cells were washed twice with glucose-free Krebs-Ringer Bicarbonate buffer (KRB) (116 mM NaCl, 1.8 mM CaCl2, 0.8 mM MgSO4, 5.4 mM KCl, 1 mM NaH2PO4, 26 mM NaHCO3, and 0.2% fatty-acid free BSA, pH 7.4) followed by preincubation for 1 h at 37°C in glucose-free KRB and the indicated concentration of GRK compounds or vehicle (DMSO) were added. The final DMSO concentration was 0.1%. After 30 min incubation at 37°C, 2 mM or 5 mM glucose and 10 nM GLP-1 were added to the wells for a final volume of 200 μL. After further incubation for 1 hour at 37°C, 20 μL of the culture supernatant was diluted 1:15 in the Dilution Buffer provided in the Insulin High Range Assay HTRF Kit (Cisbio, Bedford, MA). Insulin was detected using the Insulin High Range Assay HTRF Kit according to the manufacturer’s instructions (Cisbio, Bedford, MA). All results were obtained in 5 replicates.

In another assay the test system is mouse pancreatic islets. The assay can be described thus: Glucose stimulated insulin secretion (GSIS) in isolated mouse pancreatic islets. Conditions: 20 nM GLP-1, 2 mM glucose. The protocol: Islets were isolated from mouse pancreas by collagenase digestion ([20]). The collagenase was dissolved in Hanks’ balanced salt solution (Invitrogen, Carlsbad, CA) containing 10 µg/ml DNase I (Roche Diagnostics, Indianapolis, IN) and 0.2% BSA, and was subsequently injected into the common bile duct. The pancreas was removed and incubated at 37°C for 20 min and washed three times with Hanks’ balanced salt solution and islets were collected under a microscope. Purified islets were used after an overnight incubation in RPMI 1640 medium containing 5.5 mmol/l glucose and 10% fetal bovine serum in a humidified atmosphere containing 5% CO2/95% air at 37°C. A group of 7 islets was preincubated in Krebs Ringer bicarbonate buffer (KRBH) containing 0.2% BSA and 2 mM glucose for 40 min at 37°C. The indicated concentration of GRK compounds or vehicle (DMSO) were added. The final DMSO concentration was 0.1%. After 30 min incubation at 37°C, 2 mM or 10 mM glucose along with 20 nM GLP-1 were added to wells. After further incubation for 1 hour at 37°C with shaking, culture supernatant was collected, and insulin was detected using the Insulin High Range Assay HTRF Kit according to the manufacturer’s instructions (Cisbio, Bedford, MA).

No end group written: not given here.

Take “Human GLP-1 (7-36) amide (HAEGTFTSDVSSYLEGQAAKEFIAWLVKGR-NH2; UniProt P01275 98-127, looked up, fragment)”: in assay [1], the “EC80 for increase of cellular β-gal enzyme activity (β-arrestin recruitment)” value is given as “approximately 100 nM”. For the same substance, in the assay on INS-1 832/13 cells, the insulin secretion result is “stimulated insulin secretion”. Further, the “insulin secretion at 2 mM glucose, GLP-1 alone” value with mouse pancreatic islets is “did not stimulate insulin secretion”.

Values taken from publication PMC8160450, “GRK Inhibition Potentiates Glucagon-Like Peptide-1 Action” (Frontiers in Endocrinology, 2021).
